Measured values: patent US12503471B2, “Triazatricycle compounds for the treatment of autoimmune disease” (Hoffmann-La Roche Inc., priority 2019, dated 2025)

Target: T1, human TLR8 (Homo sapiens, UniProt Q9NR97)
T1 construct: host or cells: HEK293 (HEK-Blue hTLR8)
T1 sequence (Q9NR97 27-1041): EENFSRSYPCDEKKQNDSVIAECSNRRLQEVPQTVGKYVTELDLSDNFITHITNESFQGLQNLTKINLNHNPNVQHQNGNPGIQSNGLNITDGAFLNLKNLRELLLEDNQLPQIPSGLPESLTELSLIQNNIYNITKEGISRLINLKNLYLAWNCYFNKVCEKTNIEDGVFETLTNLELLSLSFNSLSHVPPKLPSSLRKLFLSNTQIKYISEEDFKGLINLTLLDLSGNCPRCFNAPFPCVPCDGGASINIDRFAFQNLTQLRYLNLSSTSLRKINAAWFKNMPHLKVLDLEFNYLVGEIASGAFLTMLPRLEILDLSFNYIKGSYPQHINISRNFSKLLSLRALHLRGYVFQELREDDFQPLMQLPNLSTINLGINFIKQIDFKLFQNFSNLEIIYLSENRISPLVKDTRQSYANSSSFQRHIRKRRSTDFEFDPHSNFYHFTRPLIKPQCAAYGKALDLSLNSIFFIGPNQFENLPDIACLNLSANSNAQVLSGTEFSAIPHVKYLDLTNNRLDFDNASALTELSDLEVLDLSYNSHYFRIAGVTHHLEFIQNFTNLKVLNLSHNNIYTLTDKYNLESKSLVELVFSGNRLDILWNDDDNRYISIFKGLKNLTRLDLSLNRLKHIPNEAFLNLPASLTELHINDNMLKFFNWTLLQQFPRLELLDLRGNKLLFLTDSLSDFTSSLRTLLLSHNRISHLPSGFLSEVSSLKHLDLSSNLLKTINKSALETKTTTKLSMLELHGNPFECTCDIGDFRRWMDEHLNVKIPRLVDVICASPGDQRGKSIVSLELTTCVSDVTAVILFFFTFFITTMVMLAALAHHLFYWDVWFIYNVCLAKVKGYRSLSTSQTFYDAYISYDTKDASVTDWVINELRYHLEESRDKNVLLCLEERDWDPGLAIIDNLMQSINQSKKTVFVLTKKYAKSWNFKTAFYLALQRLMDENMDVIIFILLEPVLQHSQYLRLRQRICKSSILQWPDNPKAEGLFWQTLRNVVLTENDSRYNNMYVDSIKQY
Assay: HEK293-Blue-hTLR-8 cells assay
Format: cell-based
Conditions: HEK293-Blue-hTLR8 cells, R848 stimulation, 20 hrs, SEAP reporter; read-out: HEK/hTLR8 IC50
Excerpt: HEK293-Blue-hTLR-8 Cells Assay:
A stable HEK293-Blue-hTLR-8 cell line was purchased from InvivoGen (Cat. #: hkb-htlr8, San Diego, Calif., USA). These cells were originally designed for studying the stimulation of human TLR8 by monitoring the activation of NF-κB. A SEAP (secreted embryonic alkaline phosphatase) reporter gene was placed under the control of the IFN-β minimal promoter fused to five NF-κB and AP-1-binding sites. The SEAP was induced by activating NF-κB and AP-1 via stimulating HEK-Blue hTLR8 cells with TLR8 ligands. Therefore the reporter expression was declined by TLR8 antagonist under the stimulation of a ligand, such as R848, for incubation of 20 hrs. The cell culture supernatant SEAP reporter activity was determined using QUANTI-Blue™ kit (Cat. #: rep-qbl, Invivogen, San Diego, Ca, USA) at a wavelength of 640 nm, a detection medium that turns purple or blue in the presence of alkaline phosphatase.
HEK293-Blue-hTLR8 cells were incubated at a density of 250,000˜450,000 cells/mL in a volume of 170 μL in a 96-well plate in Dulbecco's Modified Eagle's medium (DMEM) containing 4.5 g/L glucose, 50 U/mL penicillin, […], […], 2 mM L-glutamine, 10% (v/v) heat-inactivated fetal bovine serum with addition of 20 μL test compound in a serial dilution in the presence of final DMSO at 1% and 10 μL of 60 uM R848 in above DMEM, perform incubation under 37° C. in a CO2 incubator for 20 hrs. Then 20 μL of the supernatant from each well was incubated with 180 μL Quanti-blue substrate solution at 37° C. for 2 hrs and the absorbance was read at 620-655 nm using a spectrophotometer. The signaling pathway that TLR8 activation leads to downstream NF-κB activation has been widely accepted, and therefore similar reporter assay was modified for evaluating TLR8 antagonist.

SMILES	IC50 [nM]
[2H]c1ccc2c(N3C[C@@H](C)N4Cc5nc(N6CC[C@@H](OC)[C@H](N)C6)ccc5[C@H]4C3)ccc(C#N)c2n1 [Example 15, 5-[(2S,6R)-11-[(3R,4R)-3-amino-4-methoxy-1-piperidyl]-6-methyl-4,7,10-triazatricyclo[7.4.0.02,7]trideca-1(9),10,12-trien-4-yl]-2-deuterio-quinoline-8-carbonitrile]	< 0.3
[2H]c1ccc2c(N3C[C@@H](C)N4Cc5nc(O[C@H]6CCNC6)ccc5[C@H]4C3)ccc(C#N)c2n1 [Example 25, 2-Deuterio-5-[(2S,6R)-6-methyl-11-[(3S)-pyrrolidin-3-yl]oxy-4,7,10-triazatricyclo[7.4.0.02,7]trideca-1(9),10,12-trien-4-yl]quinoline-8-carbonitrile]	< 0.3
[2H]c1ccc2c(N3C[C@@H](C)N4Cc5nc(N6CC[C@H]7CNC[C@H]76)ccc5[C@H]4C3)ccc(C#N)c2n1 [Example 10, 5-[(2S,6R)-11-[(3aS,6aS)-3,3a,4,5,6,6a-hexahydro-2H-pyrrolo[2,3-c]pyrrol-1-yl]-6-methyl-4,7,10-triazatricyclo[7.4.0.02,7]trideca-1(9),10,12-trien-4-yl]-2-deuterio-quinoline-8-carbonitrile]	< 0.3
CC1(N)CCN(c2ccc3c(n2)CN2CCN(c4ccc(C#N)c5ncccc45)C[C@@H]32)CC1 [Example 4A, 5-[(2R)-11-(4-amino-4-methyl-1-piperidyl)-4,7,10-triazatricyclo[7.4.0.02,7]trideca-1(9),10,12-trien-4-yl]quinoline-8-carbonitrile]	1.9
